{"source": "patent US20250376497A1", "about": "“ARTIFICIAL PROTEIN AND USES THEREOF” (priority 2022, published 2025)", "key": {"OR2 [1]": {"target": "T1, OR2 (Homo sapiens, UniProt O43614)", "T1 sequence (O43614 1-444)": "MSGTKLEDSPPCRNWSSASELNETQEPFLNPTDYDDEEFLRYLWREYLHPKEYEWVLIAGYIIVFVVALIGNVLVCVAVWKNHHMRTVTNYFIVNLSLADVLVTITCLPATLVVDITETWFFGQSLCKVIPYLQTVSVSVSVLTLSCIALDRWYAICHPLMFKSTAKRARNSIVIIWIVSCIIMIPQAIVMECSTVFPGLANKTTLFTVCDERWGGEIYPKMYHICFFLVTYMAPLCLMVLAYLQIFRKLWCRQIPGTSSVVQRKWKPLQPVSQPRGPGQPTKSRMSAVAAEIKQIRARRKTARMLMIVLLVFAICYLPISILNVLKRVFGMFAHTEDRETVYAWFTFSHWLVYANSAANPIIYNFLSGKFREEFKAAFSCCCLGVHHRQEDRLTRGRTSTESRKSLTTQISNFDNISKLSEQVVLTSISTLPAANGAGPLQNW", "assay": "cell-based"}, "[2]": {"tested_on": "control Neuro-2a cells that do not express such receptors (wild-type, WT)", "assay": "Intracellular Ca2+ response in control wild-type Neuro-2a cells without OR1/OR2", "format": "cell-based, mouse", "settings": "Neuro-2a cells without OR1 and OR2", "procedure": "(§1) Selective expression of the OR1- or OR2-coding genes in the corresponding cell lines and the absence of expression of OR1 and OR2 in WT cells were confirmed by real-time PCR from RNA extracted from the individual DNAse-treated and back-transcribed cells (FIG. 3A). Responses in terms of intracellular [Ca^2+] were assessed in triplicate using Fluo-4 Direct Calcium Assay (Invitrogen) and a Tekan Spark microplate reader, normalizing the results obtained to the maximal responses."}, "OX-KO mice [3]": {"tested_on": "OX-KO mice", "assay": "Cataplexy-like episodes after subcutaneous injection in OX-KO mice", "format": "in vivo, mouse", "settings": "SC single injection at ZT0, 160 μM in 1 mL saline; for total duration of cataplexy-like episodes during the dark period: vs vehicle", "source_text": "D-CLS: total duration of cataplectic-like episodes during the dark period. V: vehicle (saline). OX-D: OX-DRAGON. TAT: TAT peptide. […] […] The dots indicate values in individual mice.\nSuch episodes, identified as direct transitions from wakefulness to REM sleep (Scammell et al., 2009), during the dark period are 100% specific for cataplexy in mouse models of NT1 (Fujiki et al., 2009). Correspondence between such events on polysomnographic tracings and abrupt behavioural transitions to a state of immobility was confirmed based on synchronized video tracings in a subset of mice (n=4) during treatment with vehicle and with OX-DRAGON."}, "WT Neuro-2a cells": {"tested_on": "WT Neuro-2a cells", "assay": "Immunofluorescence (anti-OXA 16-33 amide) internalization in WT Neuro-2a cells", "format": "cell-based, mouse", "settings": "74 μM, 1 hour, confocal microscopy", "source_text": "The panels show immunofluorescence imaging (rabbit anti-OXA 16-33 amide primary antibody, 1:200, Phoenix peptides #H-003-36) in Neuro-2a cells without expression of OR1 and OR2. […] The presence of diffuse TRITC fluorescence at the cytoplasmic level was confirmed in confocal microscopy (panel A). […] Calibration bars: 50 μm.\nBecause crossing the BBB requires the ability to cross endothelial cell membranes, these experiments support the ability of OX-DRAGON to cross the BBB and reach brain tissue after systemic administration."}, "[4]": {"assay": "Solubility of the peptide", "format": "physicochemical", "procedure": "Two batches of OX-DRAGON were synthesized by an external commercial entity (Genscript, (www.genscript.com), with purity ≥98.0% and net peptide content ≥68.0% (FIG. 2). The peptide is highly soluble […] in water, DPBS and DMSO."}, "OX-KO mice [5]": {"tested_on": "OX-KO mice", "assay": "Wakefulness and sleep (EEG/EMG) after intracerebroventricular infusion in OX-KO mice", "format": "in vivo, mouse", "settings": "ICV 160 μM at 5 μL/h, ZT0-6, vs vehicle (artificial cerebrospinal fluid)", "procedure": "Wakefulness, non-REM sleep (NREM) and REM sleep are expressed as a percentage of the recording time. V: vehicle (artificial cerebrospinal fluid). OX-D: OX-DRAGON. TAT: TAT peptide. ZT: Zeitgeber time (i.e., time since lights were switched on). Black bars: intracerebroventricular infusion (5 μL/h from ZT0 to ZT6, with vehicle or peptides at 160 μM). * and †: P<0.05, Wilcoxon test with exact significance (Monte Carlo method) vs. vehicle (with correction for false-discovery rate) or vs. OX-DRAGON, respectively.\n(§2) A biocompatible acrylic resin protection for was applied to the animal's head to protect the electrode and cannula connectors. After 1-2 weeks of post-operative recovery, the animals were connected via rotating electrical and fluid connectors respectively to thin electrical cables and to a catheter, itself connected to a precision pump for ICV infusion. The rotating connectors, cables and catheter were supported by a balanced arm to allow the animals full freedom of movement during the recordings, which were made with light: dark cycle of 12:12 hours. Wakefulness, non-REM sleep, and REM sleep were assessed based on EEG and EMG tracings with a technique previously published in detail (Bastianini et al., 2011)."}, "OR2 [6]": {"target": "T1, OR2", "assay": "Intracellular Ca2+ response (Fluo-4 Direct Calcium Assay) in Neuro-2a cells expressing human OR2", "format": "cell-based", "set-up": "expressed in transfected cells", "settings": "OX-DRAGON 8.5 μM vs OXA 14.8 μM; triplicate; normalized to maximal responses", "source_text": "(§3) Panel A: L, ladder DNA. Panel B: Data are reported as mean values and standard errors of the mean on triplicate measurements. The dots indicate the individual measures. […] The arrows indicate the time of the microinjection.\nas §1"}, "OR1 [7]": {"target": "T2, OR1 (Homo sapiens, UniProt O43613)", "T2 sequence (O43613 1-425)": "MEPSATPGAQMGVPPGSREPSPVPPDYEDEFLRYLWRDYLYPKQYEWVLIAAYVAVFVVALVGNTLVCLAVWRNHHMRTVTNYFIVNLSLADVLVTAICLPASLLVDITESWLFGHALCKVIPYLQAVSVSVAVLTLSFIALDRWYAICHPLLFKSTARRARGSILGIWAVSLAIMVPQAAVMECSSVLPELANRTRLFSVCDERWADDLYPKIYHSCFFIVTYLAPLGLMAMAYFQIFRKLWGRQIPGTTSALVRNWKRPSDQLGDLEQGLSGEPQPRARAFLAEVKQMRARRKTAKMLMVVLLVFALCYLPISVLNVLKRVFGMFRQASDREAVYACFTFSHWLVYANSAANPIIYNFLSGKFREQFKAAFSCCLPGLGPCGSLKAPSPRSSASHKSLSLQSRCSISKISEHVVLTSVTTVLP", "assay": "Intracellular Ca2+ response (Fluo-4 Direct Calcium Assay) in Neuro-2a cells expressing human OR1", "format": "cell-based", "set-up": "expressed in transfected cells", "settings": "OX-DRAGON 8.5 μM vs OXA 14.8 μM; triplicate; normalized to maximal responses", "source_text": "as §3, §1"}, "OR1 [8]": {"target": "T2, OR1", "assay": "Concentration-response reporter assay kit (Cayman n. 600240/600250) on HEK-293T cells, OR1", "format": "cell-based", "set-up": "host or cells: HEK-293T"}, "OX-KO mice [9]": {"tested_on": "OX-KO mice", "assay": "Wakefulness and sleep (EEG/EMG) after subcutaneous injection in OX-KO mice", "format": "in vivo, mouse", "settings": "SC single injection at ZT0, 160 μM in 1 mL saline, vs vehicle; for time spent in REM sleep: light and dark period", "procedure": "Wakefulness, non-REM sleep (NREM) and REM sleep are expressed as a percentage of the recording time. V: vehicle (saline). OX-D: OX-DRAGON. TAT: TAT peptide. ZT: Zeitgeber Time (i.e., time since lights were switched on). Each peptide was injected subcutaneously at the concentration of […] in 1 mL of vehicle at ZT0. *: P<0.05, Wilcoxon test with exact significance (Monte Carlo method) vs. vehicle with correction for false-discovery rate.\nas §2\nExperiments were performed as in step 3 above, except for the absence of the ICV cannula implant."}, "OR1 [10]": {"target": "T2, OR1", "set-up": "host or cells: HEK-293T", "settings": "Lang et al., 2004; cited from earlier work"}, "OR2 [11]": {"target": "T1, OR2", "set-up": "host or cells: HEK-293T", "settings": "Lang et al., 2004; cited from earlier work"}}, "note": "Values joined by “and” are separate entries in the source; they are usually repeats but may differ in a detail not shown here. Identical values can stand only once. “Also recorded” adds a separate entry of the source. Bridge positions count the residues as written; N and C are the ends. Ends that are not written are not given here.", "data": [{"substance": "YGRKKRRQRRRPDCCRQKTCSCRLYELLHGAGNHAAGILTL-NH2 (disulfide 14-20, 15-22) [OX-DRAGON]", "values": [{"measurement": "EC50", "setting": "OR2 [1]", "result": 10.5, "unit": "nM"}, {"measurement": "intracellular [Ca2+] response of WT cells", "setting": "[2]", "result": "absence of significant effects"}, {"measurement": "duration of individual cataplexy-like episodes", "setting": "OX-KO mice [3]", "result": "no significant changes"}, {"measurement": "total duration of cataplexy-like episodes during the dark period", "setting": "OX-KO mice [3]", "result": "significantly decrease"}, {"measurement": "number of cataplexy-like episodes", "setting": "OX-KO mice [3]; P=0.034 one-tailed Wilcoxon", "result": "reduction in the number of cataplexy-like episodes"}, {"measurement": "internalization into cells (intracellular/cytoplasmic fluorescence signal)", "setting": "WT Neuro-2a cells", "result": "cytoplasmic signal of diffused fluorescence; also recorded: presence of TRITC fluorescence signal at the intracellular level"}, {"measurement": "solubility", "setting": "[4]; in DMSO", "result": 10000, "unit": "µg/mL"}, {"measurement": "solubility", "setting": "[4]; in DPBS", "result": 10000, "unit": "µg/mL"}, {"measurement": "solubility", "setting": "[4]; in water", "result": 10000, "unit": "µg/mL"}, {"measurement": "REM sleep time", "setting": "OX-KO mice [5]", "result": "marked reduction in REM sleep time"}, {"measurement": "non-REM sleep time", "setting": "OX-KO mice [5]", "result": "decreased non-REM sleep time"}, {"measurement": "wakefulness time", "setting": "OX-KO mice [5]", "result": "increased wakefulness time"}, {"measurement": "intracellular [Ca2+] response of OR2-expressing cells", "setting": "OR2 [6]", "result": "close to the maximal ones evoked by OXA"}, {"measurement": "intracellular [Ca2+] response of OR1-expressing cells", "setting": "OR1 [7]", "result": "close to the maximal ones evoked by OXA"}, {"measurement": "EC50", "setting": "OR1 [8]; HEK-293T cells, reporter assay, Hill equation fit", "result": 67.7, "unit": "nM"}, {"measurement": "OR1/OR2 EC50 ratio", "setting": "OR1 [8]; receptor selectivity, EC50 OR1 / EC50 OR2", "result": "6.47 and 6.5"}, {"measurement": "time spent awake", "setting": "OX-KO mice [9]", "result": "without exerting significant effects"}, {"measurement": "time spent in non-REM sleep", "setting": "OX-KO mice [9]", "result": "without exerting significant effects"}, {"measurement": "time spent in REM sleep", "setting": "OX-KO mice [9]", "result": "significantly decrease"}]}, {"substance": "PDCCRQKTCSCRLYELLHGAGNHAAGILTL [4-33 truncated sequence of OXA]", "values": [{"measurement": "EC50 on OR1 relative to the native OXA protein", "setting": "OR1 [10]", "result": "approximately 1/7"}, {"measurement": "EC50 on OR2 relative to the native OXA protein", "setting": "OR2 [11]", "result": "approximately 1/7"}]}, {"substance": "YGRKKRRQRRR [TAT, cell penetrating TAT peptide of type-1 human immunodeficiency virus (HIV), reference compound]", "values": [{"measurement": "total duration of cataplexy-like episodes during the dark period", "setting": "OX-KO mice [3]", "result": "not replicated"}, {"measurement": "REM sleep time", "setting": "OX-KO mice [5]", "result": "significant reduction in REM sleep time during the dark period"}, {"measurement": "non-REM sleep time", "setting": "OX-KO mice [5]", "result": "did not evoke significant effects"}, {"measurement": "wakefulness time", "setting": "OX-KO mice [5]", "result": "did not evoke significant effects"}, {"measurement": "time spent awake", "setting": "OX-KO mice [9]", "result": "did not result in significant effects"}, {"measurement": "time spent in non-REM sleep", "setting": "OX-KO mice [9]", "result": "did not result in significant effects"}, {"measurement": "time spent in REM sleep", "setting": "OX-KO mice [9]", "result": "did not result in significant effects"}]}]}
